Earlier results, collected in patent publication US7867716B2 (priority 2004, dated 2011).

Assays:
glucoamylase = glucoamylase (Aspergillus niger, UniProt P69328)
WT-αHL = WT-αHL (Staphylococcus aureus, UniProt P09616)
WT-αHL, sequence (P09616 27-319 limits assumed): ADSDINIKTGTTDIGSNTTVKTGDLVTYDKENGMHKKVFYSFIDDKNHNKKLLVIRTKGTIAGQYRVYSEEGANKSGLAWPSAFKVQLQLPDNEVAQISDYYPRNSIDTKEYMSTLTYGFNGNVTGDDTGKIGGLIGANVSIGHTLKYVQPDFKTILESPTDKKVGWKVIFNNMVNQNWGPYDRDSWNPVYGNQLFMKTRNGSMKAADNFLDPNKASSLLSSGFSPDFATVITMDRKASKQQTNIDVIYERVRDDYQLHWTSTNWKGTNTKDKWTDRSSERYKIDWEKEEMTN

glucoamylase, sequence (P69328 25-640 limits assumed): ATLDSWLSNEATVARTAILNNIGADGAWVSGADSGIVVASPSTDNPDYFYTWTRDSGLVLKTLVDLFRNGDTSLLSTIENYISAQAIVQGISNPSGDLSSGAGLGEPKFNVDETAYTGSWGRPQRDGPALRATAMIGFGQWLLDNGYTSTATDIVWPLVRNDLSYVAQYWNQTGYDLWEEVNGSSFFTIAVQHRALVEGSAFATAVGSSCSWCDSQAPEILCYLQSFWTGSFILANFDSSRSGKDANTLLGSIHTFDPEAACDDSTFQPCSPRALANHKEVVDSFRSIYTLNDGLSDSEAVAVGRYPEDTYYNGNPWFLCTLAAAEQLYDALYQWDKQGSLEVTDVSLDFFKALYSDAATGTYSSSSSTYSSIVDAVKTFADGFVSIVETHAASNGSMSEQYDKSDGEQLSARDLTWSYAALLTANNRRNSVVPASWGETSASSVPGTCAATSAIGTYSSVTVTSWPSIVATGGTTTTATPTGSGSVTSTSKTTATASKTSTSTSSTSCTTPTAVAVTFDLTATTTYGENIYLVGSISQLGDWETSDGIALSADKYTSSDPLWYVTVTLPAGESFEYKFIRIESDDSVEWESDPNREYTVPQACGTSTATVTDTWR

Substance: β-cyclodextrin [βCD]
- ΔS° (glucoamylase): −90 J mol^−1 K^−1
- Kf (trans) (WT-αHL): 300 M⁻¹
- formation constant Kf for WT-αHL with βCD (WT-αHL): 290 M⁻¹
